Where two headings read alike, the source gives them in different places.
What was measured:
CDK9/CycT1 = molecular target: T1, CDK9/CycT1 (Homo sapiens, UniProt P50750); assay: CDK9/CycT1 high ATP kinase assay (TR-FRET, Method 1b); assay type: biochemical; conditions: for IC50: Method 1b, 2 mM ATP; for Selectivity high ATP CDK9 over high ATP CDK2: IC50 (high ATP CDK2)/IC50 (high ATP CDK9): Methods 1b and 2b, minimal values where CDK9 IC50 is at the assay limit
T1 construct: Recombinant full-length His-tagged human CDK9 and CycT1; His; purchased Invitrogen PV4131; host or cells: insect cells
T1 sequence (P50750 whole entry): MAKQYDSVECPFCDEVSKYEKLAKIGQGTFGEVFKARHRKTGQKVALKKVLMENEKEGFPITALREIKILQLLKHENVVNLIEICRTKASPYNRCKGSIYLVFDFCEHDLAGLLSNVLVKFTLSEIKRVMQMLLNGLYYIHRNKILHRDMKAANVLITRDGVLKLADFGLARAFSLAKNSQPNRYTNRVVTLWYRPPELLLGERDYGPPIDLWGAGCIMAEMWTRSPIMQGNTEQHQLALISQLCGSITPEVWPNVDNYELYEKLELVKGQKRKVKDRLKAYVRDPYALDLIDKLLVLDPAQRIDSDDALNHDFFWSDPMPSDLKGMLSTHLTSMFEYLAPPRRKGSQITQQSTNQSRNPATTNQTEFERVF
T1 sequence (O60563 whole entry partner): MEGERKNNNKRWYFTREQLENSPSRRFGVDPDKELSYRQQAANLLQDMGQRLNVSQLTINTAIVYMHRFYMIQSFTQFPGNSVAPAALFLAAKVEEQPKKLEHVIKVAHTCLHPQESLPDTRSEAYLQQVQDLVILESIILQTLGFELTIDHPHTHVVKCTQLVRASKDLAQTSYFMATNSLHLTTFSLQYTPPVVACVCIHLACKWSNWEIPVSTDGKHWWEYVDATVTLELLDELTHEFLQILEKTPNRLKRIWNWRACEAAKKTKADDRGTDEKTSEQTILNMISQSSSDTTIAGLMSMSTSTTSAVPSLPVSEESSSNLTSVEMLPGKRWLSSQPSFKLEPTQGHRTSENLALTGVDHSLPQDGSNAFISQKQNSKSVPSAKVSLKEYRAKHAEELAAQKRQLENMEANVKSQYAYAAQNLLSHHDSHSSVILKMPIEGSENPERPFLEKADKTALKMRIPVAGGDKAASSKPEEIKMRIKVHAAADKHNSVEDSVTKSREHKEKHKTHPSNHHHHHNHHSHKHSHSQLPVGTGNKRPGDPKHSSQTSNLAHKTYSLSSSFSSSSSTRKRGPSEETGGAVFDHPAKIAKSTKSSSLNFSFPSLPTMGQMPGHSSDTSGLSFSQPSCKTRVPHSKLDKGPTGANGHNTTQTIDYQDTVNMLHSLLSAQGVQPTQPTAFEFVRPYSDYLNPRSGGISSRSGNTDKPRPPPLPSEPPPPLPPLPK
Description: 1b. CDK9/CycT1 High ATP Kinase Assay
CDK9/CycT1-inhibitory activity of compounds of the present invention at a high ATP concentration after preincubation of enzyme and test compounds was quantified employing the CDK9/CycT1 TR-FRET assay as described in the following paragraphs.
Recombinant full-length His-tagged human CDK9 and CycT1, expressed in insect cells and purified by Ni-NTA affinity chromatography, were purchase from Invitrogen (Cat. No PV4131). As substrate for the kinase reaction biotinylated peptide biotin-Ttds-YISPLKSPYKISEG (C-terminus in amid form) was used which can be purchased e.g. from the company JERINI peptide technologies (Berlin, Germany). For the assay 50 nl of a 100 fold concentrated solution of the test compound in DMSO was pipetted into a black low volume 384 well microtiter plate (Greiner Bio-One, Frickenhausen, Germany), 2 μl of a solution of CDK9/CycT1 in aqueous assay buffer [50 mM Tris/HCl pH 8.0, 10 mM MgCl2, 1.0 mM dithiothreitol, 0.1 mM sodium ortho-vanadate, 0.01% (v/v) Nonidet-P40 (Sigma)] were added and the mixture was incubated for 15 min at 22° C. to allow pre-binding of the test compounds to the enzyme before the start of the kinase reaction. […] The concentration of CDK9/CycT1 was adjusted depending of the activity of the enzyme lot and was chosen appropriate to have the assay in the linear range, typical concentrations were in the range of 0.5 μg/mL. The reaction was stopped by the addition of 5 μl of a solution of TR-FRET detection reagents (0.2 μM streptavidine-XL665 [Cisbio Bioassays, Codolet, France] and 1 nM anti-RB(pSer807/pSer811)-antibody from BD Pharmingen [#558389] and 1.2 nM LANCE EU-W1024 labeled anti-mouse IgG antibody [Perkin-Elmer, product no. AD0077]) in an aqueous EDTA-solution (100 mM EDTA, 0.2% (w/v) bovine serum albumin in 100 mM HEPES pH 7.5).
The resulting mixture was incubated 1 h at 22° C. to allow the formation of complex between the phosphorylated biotinylated peptide and the detection reagents. Subsequently the amount of phosphorylated substrate was evaluated by measurement of the resonance energy transfer from the Eu-chelate to the streptavidine-XL. Therefore, the fluorescence emissions at 620 nm and 665 nm after excitation at 350 nm was measured in a HTRF reader, e.g. a Rubystar (BMG Labtechnologies, Offenburg, Germany) or a Viewlux (Perkin-Elmer). The ratio of the emissions at 665 nm and at […] was taken as the measure for the amount of phosphorylated substrate. The data were normalised (enzyme reaction without inhibitor=0% inhibition, all other assay components but no enzyme=100% inhibition).

DU145 cells = assay: Proliferation assay DU145; assay type: cell-based, human; conditions: 4 days, crystal violet, read-out: Inhibition of DU145 cell proliferation IC50
Description: Cultivated tumour cells (HeLa, human cervical tumour cells, ATCC CCL-2; NCI-H460, human non-small cell lung carcinoma cells, ATCC HTB-177; A2780, human ovarian carcinoma cells, ECACC #93112519; DU 145, hormone-independent human prostate carcinoma cells, ATCC HTB-81; HeLa-MaTu-ADR, multidrug-resistant human cervical carcinoma cells, EPO-GmbH Berlin; Caco-2, human colorectal carcinoma cells, ATCC HTB-37; B16F10, mouse melanoma cells, ATCC CRL-6475) were plated at a density of 5,000 cells/well (DU145, HeLa-MaTu-ADR), 3,000 cells/well (NCI-H460, HeLa), 2,500 cells/well (A2780), 1,500 cells/well (Caco-2), or 1,000 cells/well (B16F10) in a 96-well multititer plate in 200 μL of their respective growth medium supplemented 10% fetal calf serum. After 24 hours, the cells of one plate (zero-point plate) were stained with crystal violet (see below), while the medium of the other plates was replaced by fresh culture medium (200 μl), to which the test substances were added in various concentrations (0 μM, as well as in the range of 0.001-10 μM). The cells were incubated for 4 days in the presence of test substances. Cell proliferation was determined by staining the cells with crystal violet: the cells were fixed by adding 20 μl/measuring point of an 11% glutaric aldehyde solution for 15 minutes at room temperature. After three washing cycles of the fixed cells with water, the plates were dried at room temperature. The cells were stained by adding 100 μl/measuring point of a 0.1% crystal violet solution (pH 3.0). After three washing cycles of the stained cells with water, the plates were dried at room temperature. The dye was dissolved by adding 100 μl/measuring point of a 10% acetic acid solution. The extinction was determined by photometry at a wavelength of 595 nm. The change of cell number, in percent, was calculated by normalization of the measured values to the extinction values of the zero-point plate (=0%) and the extinction of the untreated (0 μm) cells (=100%). The IC50 values (inhibitory concentration at 50% of maximal effect) were determined by means of a 4 parameter fit. Non-adherent MOLM-13 human acute myeloid leukemia cells (DSMZ ACC 554) were seeded at a density of 5,000 cells/well in a 96-well multititer plate in 100 μL of growth medium supplemented 10% fetal calf serum. After 24 hours, cell viability of one plate (zero-point plate) was determined with the Cell Titre-Glo Luminescent Cell Viability Assay (Promega), while 50 μL of test compound containing medium was added to the wells of the other plates (final concentrations in the range of 0.001-1 μM and DMSO controls). Cell viability was assessed after 72-hour exposure with the Cell Titre-Glo Luminescent Cell Viability Assay (Promega). IC50 values (inhibitory concentration at 50% of maximal effect) were determined by means of a 4 parameter fit on measurement data which were normalized to vehicle (DMSO) treated cells (=100%) and measurement readings taken immediately before compound exposure (=0%).

| Compound | IC50 (CDK9/CycT1) | Selectivity high ATP CDK9 over high ATP CDK2: IC50 (high ATP CDK2)/IC50 (high ATP CDK9) (CDK9/CycT1) | IC50 (DU145 cells; Homo sapiens, DU-145, 96 h) | IC50 (DU145 cells) |
| --- | --- | --- | --- | --- |
| CS(=N)(=O)Cc1cc2nc(c1)OCCCOc1cc(F)ccc1-c1cc(ncc1F)N2 (racemic) [Example 5, (rac)-15,19-Difluoro-8-[(S-methylsulfonimidoyl)methyl]-3,4-dihydro-2H,11H-10,6-(azeno)-12,16-(metheno)-1,5,11,13-benzodioxadiazacyclooctadecine] | 0.98 nM | 20.8 | 4 nM | – |
| CCNC(=O)N=S(C)(=O)Cc1cc2nc(c1)OCCCOc1cc(F)ccc1-c1cc(ncc1F)N2 (racemic) [Example 17, (rac)-1-[{[15,19-difluoro-3,4-dihydro-2H,11H-10,6-(azeno)-12,16-(metheno)-1,5,11,13-benzodioxadiazacyclooctadecin-8-yl]methyl}(methyl)oxido-λ^6-sulfanylidene]-3-ethylurea] | 2.7 nM | 13.5 | 36 nM | – |
| ({[15,19-difluoro-3,4-dihydro-2H,11H-10,6-(azeno)-12,16-(metheno)-1,5,11,13-benzodioxadiazacyclooctadecin-8-yl]methyl}sulfonyl)acetic acid [Example 27] | 1.7 nM | 3.7 | – | 3360 nM |
| CSCc1cc2cc(c1)OCCCOc1cc(F)ccc1-c1nc(ncc1F)N2 [Example 2, 15,19-Difluoro-8-[(methylsulfanyl)methyl]-3,4-dihydro-2H,11H-12,16-(azeno)-10,6-(metheno)-1,5,11,13-benzodioxadiazacyclooctadecine] | 4.3 nM | 149.6 | 111 nM | – |

Now from value to compound, other results behind:

| IC50 (CDK9/CycT1) | Selectivity high ATP CDK9 over high ATP CDK2: IC50 (high ATP CDK2)/IC50 (high ATP CDK9) (CDK9/CycT1) | IC50 (DU145 cells; Homo sapiens, DU-145, 96 h) | Compound | IC50 (DU145 cells) |
| --- | --- | --- | --- | --- |
| 1.1 nM | 35.4 | 4 nM | CS(=N)(=O)Cc1cc2nc(c1)OCCCOc1cc(F)ccc1-c1cc(ncc1F)N2 (single isomer, unassigned; enantiomer 1) [Example 6, 15,19-Difluoro-8-[(S-methylsulfonimidoyl)methyl]-3,4-dihydro-2H,11H-10,6-(azeno)-12,16-(metheno)-1,5,11,13-benzodioxadiazacyclooctadecine; Enantiomer 1] | – |
| 11.8 nM | 75.7 | 218 nM | CSCc1cc2nc(c1)OCCCCOc1cc(F)ccc1-c1cc(ncc1F)N2 [Example 12, 16,20-Difluoro-9-[(methylsulfanyl)methyl]-2,3,4,5-tetrahydro-12H-11,7-(azeno)-13,17-(metheno)-1,6,12,14-benzodioxadiazacyclononadecine] | – |
| 4.6 nM | 28.2 | 88 nM | CSCc1cc2nc(c1)OCCCOc1cc(F)ccc1-c1cc(ncc1F)N2 [Example 3, 15,19-Difluoro-8-[(methylsulfanyl)methyl]-3,4-dihydro-2H,11H-10,6-(azeno)-12,16-(metheno)-1,5,11,13-benzodioxadiazacyclooctadecine] | – |
